Experimental data published in patent publication US7892350B2, “Sacrificial agents for fly ash concrete” (Boral Material Technologies Inc., priority 2003, dated 2011).
Read-outs that look alike come from different tables or passages of the source.

Assay: Second sacrificial agent testing protocol: paste air measurements with DDBS (0.0125 wt %) and rating; for Overall performance rating (second protocol rating): key: 0: Fail; 1: Poor; 2: Good; 3: Preferred; 4: Most preferred; for SA Rating (0-4): key: 0: Fail; 1: Poor; 2: Good; 3: Preferred; 4: Most preferred
Procedure: The second sacrificial agents evaluation protocol has been designed to assess the relative potential value of candidate sacrificial agents with a maximum of five paste air measurements.
The first two measurements (of entrained air) are carried out with a standard AEA in a portland cement paste and in a FA:cement paste; these two tests provide reference values which can be used for the relative assessment of a series of sacrificial agents. The other three paste air measurements pertain to the properties and effectiveness of the sacrificial agents.
1. Measurement of the air entrained by a standard air-entraining admixture in a cement paste of fixed composition and fluidity; the latter is a reference system which provides ‘reference’ air entrainment values (‘A’ in FIG. 8).
2. […] The difference between ‘B’ and ‘A’ in FIG. 8 is the reduction in air entrainment due to the presence of the fly ash; this is illustrated as ‘C’ in FIG. 8.
In the present SA testing and evaluation protocol, the fly ash selected should remain the same for the entire set of additives tested, in order to provide reliable relative performance ranking. For the present series of test, the Fly Ash selected was the one identified as B1 in Table 1 below; the physico-chemical properties of this fly ash are reported in Table 1.
In testing for the relative performance of the sacrificial agent, the sacrificial agent dosage was chosen in the range 0-0.1 wt %, which corresponds to typical dosage values observed in paste, mortar and concrete tests reported in Tables 2, 3 and 4 and Tables 7 to 34.
3. Measurement of the air entrainment of the SA, by itself, in a cement-only paste at a dosage of 0.1 wt %; this is illustrated as ‘D’ in FIG. 8.
4. Measurement of the air entrained by DDBS in the FA-cement paste comprising 0.05% wt SA, under the same conditions as described in 2 above. The air entrainment value observed in this system, compared to that observed in the absence of the SA, yields the air recovery due to the SA, and is illustrated schematically as ‘E’ in FIG. 8.
5. Same as in 4 above, but with a higher SA concentration at 0.1 wt %; the air entrainment observed, again compared to the value observed in the absence of the SA, yields a second value of air recovery by the SA and is illustrated as ‘F’ in FIG. 8.
For the relative performance rating of the group of products chosen as potential SA and listed in Table 36, the following rating scheme (Tables A and B) was adopted (referring to FIG. 8 and quantities defined therein):
1: Chemical name of compound tested as potential sacrificial agent • Col. 2: Level of air entrainment by the candidate sacrificial agent, at a concentration of 0.1 wt %, in a Portland cement paste ([…]) • Col. […] 5: Sacrificial agent overall rating index (described below) • Col. 6: Hydrophilic-Lipophilic Balance (HLB) values of candidate sacrificial agent (source and significance of HLB data given below) • Col. 7: Logarithm of the Oil(octanol)/water partition coefficient (Kow) of the candidate sacrificial agents (source and significance of data given below).

[1] = Portland cement paste (PCA), […]
[2] = sacrificial agent overall rating index
[3] = B1 FA/cement paste, 0.0125 wt % DDBS, 0.05 wt % SA
[4] = B1 FA/cement paste, 0.0125 wt % DDBS, 0.10 wt % SA
[5] = sum of ratings of air entrainment recovery by 0.05% and 0.1% SA, DDBS 0.0125 wt %, 50:50 B1 fly ash:cement paste

Row | Compound | Overall performance rating (second protocol rating) | B1 + 0.0125% DDBS + 0.05% SA (air entrainment) (B1 FA/cement paste, […]) | B1 + 0.0125% DDBS + 0.1% SA (air entrainment) (B1 FA/cement paste, […]) | PCA + 0.1% SA (level of air entrainment by the candidate sacrificial agent) [1] | SA Rating (0-4) [2] | further results
1 | OC[C@@H](O)[C@@H](O)[C@H](O)[C@@H](O)CO [Sorbitol] | 1 | 2.2 | 4.2 | 0.5 | 1 | 
2 | OCCOCCOCCO [tri-Ethylene Glycol] | 1 | 3.1 | 4.1 | 0.9 | 1 | 
3 | CC(O)CNCC(C)O (centres unmarked) [Di-isopropanolamine] | 3 |  |  |  |  | B1 + 0.0125% DDBS + 0.05% SA (air entrainment): 4.6; B1 + 0.0125% DDBS + 0.1% SA (air entrainment): 5.5; PCA + 0.1% SA (level of air entrainment by the candidate sacrificial agent): 1.1; SA Rating (0-4): 3
4 | CCC(=O)OC [Methylpropionate] |  | 2.7 | 3.5 | 0.2 | 0 | 
5 | CC(C)COCCO [Ethylene Glycol iso-Butyl Ether] |  |  |  | 1.7 | 4 | B1 + 0.0125% DDBS + 0.05% SA (air entrainment) [3]: 8.8; B1 + 0.0125% DDBS + 0.1% SA (air entrainment) [4]: 9.5; Overall performance rating (second protocol rating) [5]: 4
6 | Cl.NCC(N)C(=O)O (centres unmarked) |  | 1.7 | 1.9 | 0.3 | 0 | 
7 | CCCCCCCCCCCCCCCC(=O)OC [Methylpalmitate] | 2 | 5.3 | 3.4 | 2.5 | 2 | 
8 | P(EG-ran-propylene-glycol) 2500 | 4 |  |  |  |  | 
9 | O=C1OCCO1 [Ethylene carbonate] |  | 2.5 | 1.9 | 0.0 | 0 | 
10 | CCCCO [1-Butanol] | 4 |  |  |  |  | B1 + 0.0125% DDBS + 0.05% SA (air entrainment): 5.9; B1 + 0.0125% DDBS + 0.1% SA (air entrainment): 6.5; PCA + 0.1% SA (level of air entrainment by the candidate sacrificial agent): 1.2; SA Rating (0-4): 4
11 | CC(O)COC(C)COC(C)CO (centres unmarked) [tri-Propylene glycol] | 4 | 7.8 | 9.2 | 1.6 | 4 | 
12 | Methylnaphthalene sulfonate Na |  |  |  |  |  | Overall performance rating (second protocol rating) [5]: 4
13 | Aniline (Phenylamine) |  | 3.7 | 5.6 | 1.7 | 2 | 
14 | Nc1ccccc1 [Aniline] |  |  |  |  |  | Overall performance rating (second protocol rating) [5]: 2
15 | OCc1ccccc1 [Benzyl alcohol] |  |  |  | 0.6 | 3 | B1 + 0.0125% DDBS + 0.05% SA (air entrainment) [3]: 4.1; B1 + 0.0125% DDBS + 0.1% SA (air entrainment) [4]: 5.4; Overall performance rating (second protocol rating) [5]: 3
16 | CCCCCCCC/C=C\CCCCCCCC(=O)OC [Methyloleate] |  |  |  | 0.5 | 2 | B1 + 0.0125% DDBS + 0.05% SA (air entrainment) [3]: 5.1; B1 + 0.0125% DDBS + 0.1% SA (air entrainment) [4]: 2.7; Overall performance rating (second protocol rating) [5]: 2
17 | CCCCOC(=O)c1ccccc1C(=O)OCCCC [N-Butyl phthalate] |  |  |  |  | 0 | B1 + 0.0125% DDBS + 0.05% SA (air entrainment) [3]: 2.2; B1 + 0.0125% DDBS + 0.1% SA (air entrainment) [4]: 2.1; PCA + 0.1% SA (level of air entrainment by the candidate sacrificial agent) (Portland cement paste (PCA), 0.1 wt % SA, no DDBS): 0.0
18 | CC(=O)CC(C)C [Methyl isobutylketone (MIBK)] |  |  |  | 0.3 | 2 | B1 + 0.0125% DDBS + 0.05% SA (air entrainment) [3]: 5.6; B1 + 0.0125% DDBS + 0.1% SA (air entrainment) [4]: 3.9
19 | CCCCCC(=O)OCC [Ethylcaproate] |  |  |  | 0.0 | 1 | B1 + 0.0125% DDBS + 0.05% SA (air entrainment) [3]: 4.3; B1 + 0.0125% DDBS + 0.1% SA (air entrainment) [4]: 2.4; Overall performance rating (second protocol rating) [5]: 1
20 | CCOCCOC(C)=O [Ethylene glycol mono-ethyl ether acetate] | 2 |  |  |  |  | 
21 | C[S+](C)[O-] [Dimethylsulfoxide] |  | 2.5 | 3.1 | 0.0 | 0 | 
22 | CCO [Ethanol] |  |  |  |  |  | B1 + 0.0125% DDBS + 0.05% SA (air entrainment): 3.1; B1 + 0.0125% DDBS + 0.1% SA (air entrainment): 3.3; PCA + 0.1% SA (level of air entrainment by the candidate sacrificial agent): 1.5; SA Rating (0-4): 0
23 | CC(O)C(C)O (centres unmarked) [2,3-Butanediol] |  | 3.6 | 3.7 | 1.2 | 0 | 
24 | Tetramethyl ammonium hydroxide |  |  |  |  |  | B1 + 0.0125% DDBS + 0.05% SA (air entrainment): 2.5; B1 + 0.0125% DDBS + 0.1% SA (air entrainment): 2.9; PCA + 0.1% SA (level of air entrainment by the candidate sacrificial agent): 0.1; SA Rating (0-4): 0
25 | CCc1ccc(S(=O)(=O)O)cc1 [4-Ethyl benzene sulfonic acid] |  |  |  | 1.3 | 3 | B1 + 0.0125% DDBS + 0.05% SA (air entrainment) [3]: 4.8; B1 + 0.0125% DDBS + 0.1% SA (air entrainment) [4]: 6.2; Overall performance rating (second protocol rating) [5]: 3
26 | CCCCCCO [Hexanol] | 1 | 4.2 | 2.7 | 0.0 | 1 | 
